According to the NIST ThermoML archive (doi:10.1007/s10765-015-2006-0):
± gives the expanded uncertainty stated by the source.

What was measured:
[1] = 101 kPa, Liquid, Frequency=3 MHz, Sing-around technique in a fixed-path interferometer
[2] = mn = molality of the nth substance listed, in mol/kg; conditions: 101 kPa, Liquid, Frequency=3 MHz, Sing-around technique in a fixed-path interferometer

O [water]
[1]
Conditions	speed of sound [m/s]
288.15 K	1463.1 ± 3.4
298.15 K	1495.8 ± 3.4
308.15 K	1519.1 ± 3.4

CC(C)[C@H](N)C(=O)O [L-valine] + O
speed of sound [m/s], [2]
Conditions	m1 = 0.00555	m1 = 0.02398	m1 = 0.03504	m1 = 0.05824	m1 = 0.07873	m1 = 0.09938	m1 = 0.2068	m1 = 0.2992	m1 = 0.4017
288.15 K	1467.4 ± 3.4	1467.3 ± 3.4	1469.7 ± 3.4	1469.6 ± 3.4	1472.8 ± 3.4	1474.8 ± 3.4	1477 ± 3.4	1488.4 ± 3.4	1497.2 ± 3.4
298.15 K	1497.5 ± 3.4	1497.4 ± 3.4	1499.6 ± 3.4	1499.7 ± 3.4	1502.4 ± 3.4	1504.4 ± 3.4	1506.2 ± 3.4	1516.6 ± 3.4	1524.8 ± 3.4
308.15 K	1520.4 ± 3.4	1520.4 ± 3.4	1522 ± 3.4	1522.6 ± 3.4	1525 ± 3.4	1526.9 ± 3.4	1528.2 ± 3.4	1537.8 ± 3.4	1545.2 ± 3.4
318.15 K	1537.1 ± 3.4	1537.4 ± 3.4	1538.7 ± 3.4	1539 ± 3.4	1541.2 ± 3.4	1542.7 ± 3.4	1544.4 ± 3.4	1552.5 ± 3.4	1560.4 ± 3.4

C[C@H](N)C(=O)O [(S)-2-aminopropanoic acid] + O
speed of sound [m/s], [2]
Conditions	m1 = 0.00939	m1 = 0.04689	m1 = 0.09896	m1 = 0.2003	m1 = 0.2979	m1 = 0.3997	m1 = 0.4941	m1 = 0.6099	m1 = 0.6973	m1 = 0.7978
288.15 K	1467.6 ± 3.4	1469.9 ± 3.4	1472.8 ± 3.4	1480.3 ± 3.4	1487.3 ± 3.4	1494.3 ± 3.4	1500.3 ± 3.4	1509.5 ± 3.4	1513.3 ± 3.4	1520 ± 3.4
298.15 K	1497.9 ± 3.4	1499.8 ± 3.4	1502.8 ± 3.4	1509.6 ± 3.4	1515.9 ± 3.4	1522.7 ± 3.4	1528 ± 3.4	1536.7 ± 3.4	1540.4 ± 3.4	1546.2 ± 3.4
308.15 K	1520.8 ± 3.4	1522.7 ± 3.4	1525.5 ± 3.4	1531.8 ± 3.4	1537.9 ± 3.4	1544 ± 3.4	1549 ± 3.4	1556.8 ± 3.4	1560.7 ± 3.4	1566 ± 3.4
318.15 K	1537 ± 3.4	1539.2 ± 3.4	1542 ± 3.4	1547.9 ± 3.4	1553.2 ± 3.4	1558.7 ± 3.4	1564.1 ± 3.4	1571.4 ± 3.4	1574.7 ± 3.4	1611.9 ± 3.4
